Source: patent EP4268823A1, “COMPOUND FOR TREATING NEUROINFLAMMATION” (Universitätsklinikum Hamburg-Eppendorf, priority 2022, dated 2023)

What was measured:
[1] = system: ferroptosis-related genes; assay: mRNA expression of ferroptosis-related genes in erastin-treated hiPSC-neurons; assay type: cell-based; details: erastin-treated human neurons ± UNC0642
Source text: Human iPSCs (ZIPi013-B) (83) were maintained under feeder-free conditions on Matrigel (Corning)-coated plates in mTeSR1 medium (Stem Cell Technologies, cat. no. 85850). For neuronal induction, iPSCs were dissociated with Accutase and seeded at a density of 3 × 10^6 cells per well on AggreWell800 plates (10,000 cells per embryoid body (EB), Stem Cell Technologies) in SMADi Neural Induction Medium (SMADi NIM, Stem Cell Technologies, cat. no. 08582) supplemented with […] (Stem Cell Technologies, cat. no. 72302). On day 6, EBs were harvested and cultivated on Matrigel-coated plates in SMADi NIM for 12 days. Newly formed neural rosettes were manually picked and cultured for another 4 days. In order to release neural precursor cells (NPCs), neural rosettes were dissociated with Accutase and were maintained for several passages at high density in Neural Progenitor Medium (Stem Cell Technologies, cat. no. 05833) on Matrigel-coated plates. HiPSC-derived NPCs were differentiated into neurons as previously described (84, 85) with some modifications. Briefly, NPCs were seeded at a density of 1 × 10^5 cells per cm^2 in Neural Progenitor Medium onto Matrigel-coated plates. […]
RNA was extracted using RNeasy Mini Kit (Qiagen) and subsequently reverse-transcribed to complementary DNA with the RevertAid H Minus First Strand cDNA Synthesis Kit (Thermo Fisher Scientific) according to the manufacturer's instructions. Gene expression was analyzed by real-time PCR performed in an ABI Prism 7900 HT Fast Real-Time PCR System (Applied Biosystems) using TaqMan Gene Expression Assays (Thermo Fisher Scientific). Gene expression was calculated as 2-ΔCt relative to Tbp as the endogenous control.

[2] = system: primary cortical cultures; assay: RealTime-Glo cell viability assay, glutamate excitotoxicity; assay type: cell-based, mouse; details: G9a-deficient neurons from G9afl/fl;Snap25-Cre mice treated with UNC0642; readout not stated
Protocol: For primary cortical cultures pregnant C57BL/6J, or G9afl/fl;Snap25-Cre mice were euthanized. To ensure comparability between genotypes, only embryos from heterozygous breeding's were used. Brainstem tissue of each embryo for genotyping was reserved and cortices were isolated, dissociated and cells were plated at a density of 1 × 10^5 cells per 1 cm^2 on poly-D-lysine-coated wells (5 µM Sigma-Aldrich, cat. no. A-003-M). If not stated otherwise, cells were maintained in neurobasal plus medium (supplemented with B27 plus, penicillin, streptomycin and L-glutamine; Gibco, cat. no. A3582901) at 37°C, 5% CO^2 and a relative humidity of 98%, and treated with 1 µM cytarabine (Sigma-Aldrich, cat. no. BP383) at 1 day in vitro (div) to inhibit glial cell proliferation. If no cytarabine was applied cells were maintained in PNBM medium (supplemented with neural cell survival factor, gentamycin and L-glutamine; Lonza). Throughout, cultures after 14-23 div were used for experiments. […]
RealTime-Glo (Promega, cat. no. G9711) MT cell viability substrate and NanoLuc Enzyme was mixed together, added to neuronal cultures and incubated for 5 hours for equilibration of luminescence signal before respective treatments were applied. Luminescence was acquired with a Spark 10M multimode microplate reader (Tecan) at 37°C and 5% CO2 every 30 min over a total time period of 24 hours. […]

cyclooxygenase-2 (COX-2) = assay: COX-2 immunostaining after glutamate stimulation; assay type: cell-based, mouse; details: glutamate excitotoxicity ± UNC0642
Protocol: For primary cortical cultures pregnant C57BL/6J, or G9afl/fl;Snap25-Cre mice were euthanized. To ensure comparability between genotypes, only embryos from heterozygous breeding's were used. Brainstem tissue of each embryo for genotyping was reserved and cortices were isolated, dissociated and cells were plated at a density of 1 × 10^5 cells per 1 cm^2 on poly-D-lysine-coated wells (5 µM Sigma-Aldrich, cat. no. A-003-M). If not stated otherwise, cells were maintained in neurobasal plus medium (supplemented with B27 plus, penicillin, streptomycin and L-glutamine; Gibco, cat. no. A3582901) at 37°C, 5% CO^2 and a relative humidity of 98%, and treated with 1 µM cytarabine (Sigma-Aldrich, cat. no. BP383) at 1 day in vitro (div) to inhibit glial cell proliferation. If no cytarabine was applied cells were maintained in PNBM medium (supplemented with neural cell survival factor, gentamycin and L-glutamine; Lonza). Throughout, cultures after 14-23 div were used for experiments. G9a inhibitor UNC0642 was used in a concentration of 1 µM and cultures were pre-treated 24 hours before further experimental procedures.
Immunocytochemistry was performed as described previously (15). […] Immunostainings were analyzed with a Zeiss LSM 700 confocal microscope.

For `COc1cc2c(NC3CCN(C(C)C)CC3)nc(N3CCC(F)(F)CC3)nc2cc1OCCCN1CCCC1` [UNC0642, 2-(4,4-difluoropiperidin-1-yl)-6-methoxy-N-[1-(propan-2-yl)piperidin-4-yl]-7-[3-(pyrrolidin-1-yl)propoxy]quinazolin-4-amine], which “mRNA expression of GPX4” value [1] is on record?
The value was “significant upregulation”.

What about the “mRNA expression of Gclc” value [1] of the same molecule?
The value was “significant upregulation”.

What about the “mRNA expression of SLC7A11” value [1] of the same molecule?
The value was “highly upregulated”.

And the “additional rescue effect during glutamate stress” value [2]?
Its value is “no additional rescue effect”.

What about the “induction of COX-2-positive cells” value (cyclooxygenase-2 (COX-2)) of the same molecule?
Its value is “almost completely abolished its induction”.
